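96-well plates; 48 h exposure; 5 concentrations. Endpoints by linear interpolation between flanking doses. Not reached: highest tested concentration assigned. GI50 = concentration required for 50% inhibition of growth.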 Calls of active or inactive are those of the source. Rule as the data show it: active = GI50 up to about 1.1 µM and inactive = higher.
Legend:
Experiment in all cases: NCI-60 cell line screen, 48 h
[1] = system: HOP-92
[2] = system: SK-MEL-2
[3] = system: TK-10
[4] = system: EKVX
[5] = system: MOLT-4
[6] = system: ACHN
[7] = system: PC-3
[8] = system: OVCAR-3
[9] = system: SN12C
[10] = system: MDA-MB-231
[11] = system: NCI-H522
[12] = system: SK-MEL-28
[13] = system: MDA-MB-435
[14] = system: RPMI-8226
[15] = system: SR
[16] = system: HOP-62
[17] = system: COLO 205
[18] = system: Malme-3M
[19] = system: K562
[20] = system: SW-620

Measured: GI50

CN1CCc2nc(N)nc(-c3nc(N)nc4c3CN(C)CC4)c2C1
inactive: [1] > 100 µM | [2] > 100 µM | [3] > 100 µM | [4] > 100 µM | [5] > 100 µM | [6] > 100 µM | [7] > 100 µM | [8] > 100 µM | [9] > 100 µM | [10] > 100 µM | [11] > 100 µM | [12] > 100 µM | [13] > 100 µM | [14] > 100 µM | [15] 33 µM | [16] > 100 µM | [17] > 100 µM | [18] > 100 µM | [19] 75.9 µM | [20] > 100 µM

Nc1ccc(Sc2c3ccccc3nc3ccccc23)cc1
inactive: [1] 10.1 µM | [2] 16.9 µM | [3] 13.4 µM | [4] 23 µM | [5] 3.02 µM | [6] 12.3 µM | [7] 13.1 µM | [8] 15.6 µM | [9] 18.5 µM | [10] 14.7 µM | [11] 6.15 µM | [12] 15.2 µM | [13] 17.2 µM | [14] 2.82 µM | [15] 3.74 µM | [16] 29.7 µM | [17] 11.5 µM | [18] 19.7 µM | [19] 2.65 µM | [20] 10.4 µM

CCOC(=O)CCC(NC(=O)c1ccc(Oc2nc3ccc(C(F)(F)F)cc3nc2-c2ccccc2)cc1)C(=O)OCC (stereo not given)
inactive: [1] 18.9 µM | [2] 22.8 µM | [3] 15.1 µM | [4] 12.9 µM | [5] > 100 µM | [6] 5.61 µM | [7] > 58.3 µM | [8] 30.8 µM | [9] > 50.7 µM | [10] 8.13 µM | [11] 9.57 µM | [12] > 100 µM | [13] > 100 µM | [14] > 100 µM | [15] > 100 µM | [16] 4.82 µM | [17] > 100 µM | [18] 14.2 µM | [19] > 100 µM | [20] > 100 µM

NCCCCNC1(c2cc3ccccc3s2)CCCCC1
inactive: [1] 5.32 µM | [2] 1.88 µM | [3] 3.87 µM | [4] 14.6 µM | [5] 2.07 µM | [6] 11.1 µM | [7] 4.9 µM | [8] 2.78 µM | [9] 12.2 µM | [10] 3.22 µM | [11] 2.42 µM | [12] 1.83 µM | [13] 1.82 µM | [14] 1.84 µM | [15] 1.49 µM | [16] 6.03 µM | [17] 1.74 µM | [18] 1.88 µM | [19] 1.59 µM | [20] 3.54 µM

Source: ChEMBL document CHEMBL1201862, “PubChem BioAssay data set” (2004)
